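A five-concentration, 48-hour dose response in 96-well plates underlies each endpoint, interpolated linearly between surrounding concentrations. GI50 = concentration required for 50% inhibition of growth. TGI: concentration producing complete growth inhibition.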
Test system: MDA-MB-468 breast
Assay: DTP human tumour cell line panel, 48 h

Row | SMILES | GI50 | TGI
1 | Cc1cc(/C=C/c2ccc3cc(N(C)C)ccc3[n+]2C)c(C)n1-c1ccccc1 | 48.6 nM | 0.23 µM
2 | COc1cccc(-c2nc(-c3ccc(NC(=O)C(C)C)cc3)[nH]c2-c2ccnc(Br)c2)c1 | 1890 nM | 5.4 µM
3 | OCc1ccc(-c2ccc(-c3ccc(CO)s3)o2)s1 | – | 0.023 µM
4 | COc1cc(/C=C/c2cc(O)c(C(C)=O)c(O)c2)cc2c1O[C@]1(C)CC[C@@H](O)C(C)(C)[C@H]1C2 | 4750 nM | 31.2 µM
5 | O=C(CSc1ccc(Cl)cc1)Nc1ccc(-c2nc3ccccc3s2)c(Cl)c1 | 4520 nM | 48.5 µM
6 | CN1CCN(CCCn2c(=O)c3sc4ncccc4c3n3nnc(-c4ccccc4)c23)CC1 | 6840 nM | 13.9 µM
7 | CC[C@H](Nc1ncnc2nc[nH]c12)c1oc2ccccc2c(=O)c1-c1cccc(F)c1 | 9080 nM | 34.4 µM
8 | O=C1OC(O)[C@@H]2[C@H]1[C@H]1CC[C@@H]2O1 (stereo not given in full) | 85900 nM | > 100 µM
9 | O=C(/C=C/c1ccncc1)c1cc(Cl)ccc1O | 18100 nM | 33 µM
10 | C=C1NC(=O)C(C(C)CC)NC(=O)C2CSCC(NC(=O)CCC(=O)O)C(=O)NC(Cc3ccccc3)C(=O)NC(C)C(=O)NC(CC(C)CC)C(=O)NC(C(=O)NC(Cc3ccccc3)C(=O)N3CCCC3C(=O)N2)C(C)OC(=O)C(CO)NC(=O)C(C(O)COC)N(C)C(=O)C(C(C)C)NC(=O)C(CC(C)CC)NC1=O (stereo not given) | < 14 nM | –
11 | O=C1c2cc3c(cc2-c2c1c1ccc(F)cc1c(=O)n2CCCNCCO)OCO3 | 22.8 nM | 0.0705 µM
12 | O=C(/C=C/c1ccc(Cl)cc1)c1ccc(Nc2ccnc3cc(Cl)ccc23)cc1 | 43100 nM | > 100 µM
13 | N#C/C(=N\Nc1ccc(F)cc1)C(=O)Nc1cc(-c2ccccc2)nn1-c1ccccc1 | 1460 nM | 6.01 µM
14 | Nc1ncnc2c1nnn2C1OC(CO)C(O)C1O (stereo not given) | 234 nM | 1.26 µM
15 | CN(C(=O)c1ccc(C(F)(F)F)cc1)c1ccc(Oc2ccc3c(c2)cc(C(=O)N2CCN(Cc4ccc(OC(F)F)cc4)CC2)n3C)nc1 | < 10 nM | 28.6 µM
16 | CCN(CC)c1ccc(-c2cc(-c3cc(OC)c(OC)c(OC)c3)nc(N3CCOCC3)c2C#N)cc1 | 2580 nM | > 100 µM

Row | SMILES | GI50 | TGI
17 | COc1ccc(-c2nnc(COc3ccc(C(=O)/C=C/c4ccco4)cc3)o2)cc1 | 1890 nM | 4.12 µM
18 | CC(C)[C@H]1COC(=O)N1[C@@H]1C(=O)N([C@@H](CCC(=O)N2CCN(C3CCCC3)CC2)C(=O)N[C@@H]2CCCc3ccccc32)[C@@H]1/C=C/c1cccc(Br)c1 | 688 nM | 2.12 µM
19 | O=c1c2sccc2n(CC2COc3ccccc3O2)c(=O)n1O (stereo not given) | 4610 nM | 57.4 µM
20 | Fc1cc2[nH]ncc2c2c3c(c(-c4cn[nH]c4)nc12)CCCC3 | 857 nM | 2.58 µM
21 | COc1ccc(/C=C(/C#N)n2nnc3cccc(F)c32)cc1 | 414 nM | 5.12 µM
22 | C=C1C(=O)O[C@H]2[C@H]1CC/C(COC(=O)c1c[nH]c3ccccc13)=C\CC[C@@]1(C)O[C@@H]21 | 190 nM | 0.448 µM
23 | C/C(=C(/c1ccc(O)cc1)c1ccc(OCCN2CCCC2)cc1)c1ccc(Cl)cc1 | 1880 nM | 4.11 µM
24 | Cn1cnc([N+](=O)[O-])c1S(=O)(=O)Oc1cccc2ccccc12 | 1850 nM | 3.84 µM
25 | O=C(CCc1nnc2sc(-c3ccc(Cl)cc3Cl)nn12)c1nc2ncccc2[nH]1 | 2090 nM | 4.41 µM
26 | CCCCCCCC(=O)SCC/C=C/[C@@H]1CC(=O)NCc2cc(ccn2)C2=N[C@@](C)(CS2)C(=O)N[C@@H](C(C)C)C(=O)O1 | 55 nM | > 33.3 µM
27 | COc1ccc(-c2nnc(COc3ccc(NC(=O)Nc4cc(C(F)(F)F)cc(C(F)(F)F)c4)cc3F)o2)cc1 | 1550 nM | 5.04 µM
28 | COc1cc(/C=C/C(=O)c2cc(OC)c(OC)c(OC)c2)ccc1OCc1ccccc1 | 2150 nM | 7.98 µM
29 | OC(c1cc(-c2ccc(C(F)(F)F)cc2)nc(-c2ccc(C(F)(F)F)cc2)c1)C1CCCCN1 (stereo not given) | 1470 nM | 2.82 µM
30 | CCN1CCN(c2nc(C)cc(N(CCNc3ccnc4cc(Cl)ccc34)Cc3ccc4c(c3)OCO4)n2)CC1 | 1550 nM | 3.34 µM
31 | Cc1cc(-c2ccc3nc(C4CCOCC4)n(CCOC(F)(F)F)c3c2)cn(C)c1=O | 188 nM | 2.25 µM
